From the supplement of paper PMC10307832

Legend:
Experiment in all cases: relative viability (nuclei count vs DMSO), 5 days (fraction); higher = more cells survive
[1] = compound: C[C@]1(c2nc3c(C(N)=O)cccc3[nH]2)CCCN1 [Veliparib] + N=C(N)NC(=N)NCCc1ccccc1 [Phenformin] (partner 250 µM)
Procedure, shortened: (§1)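 After 5 days of treatment, lung cancer cells in 1536-well plates were fixed and stained in a single step (final 0.05% Triton X-100, 1% formaldehyde, 1 ug/ml Hoechst) and their nuclei counted on 4× images. Treatment had been applied by pin tool the day after seeding as one drug alone or as a fixed anchor-drug dose with five library-drug doses (not always all listed) in √10 steps. Relative viability is the nuclei count of treated wells divided by that of vehicle wells, and values are medians of duplicate plates.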

[2] = compound: COC1=CC=C(C=C1)CN2C=CC3=C2C=C(C=C3)C(=O)NO + CC1(C)CCC(c2ccc(Cl)cc2)=C(CN2CCN(c3ccc(C(=O)NS(=O)(=O)c4ccc(N[C@H](CCN5CCOCC5)CSc5ccccc5)c(S(=O)(=O)C(F)(F)F)c4)cc3)CC2)C1 [Navitoclax] (partner 0.5 µM)
Procedure, shortened: as §1

[3] = compound: C[C@]1(c2nc3c(C(N)=O)cccc3[nH]2)CCCN1 [Veliparib]
Procedure, shortened: (§2)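 MetaXpress counted nuclei in 4× images of lung cancer cell lines that had been fixed, permeabilised and Hoechst-stained in one step. Before that, cells in 1536-well plates were kept overnight at 37 °C, pinned with five √10-spaced library-drug doses on vehicle-anchored plates, and cultured 5 days without medium change. Viability takes treated-well nuclei over vehicle-well nuclei and uses the median across plates. Plates were accepted only at control CV below 25% and at least one doubling.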

[4] = compound: COC1=CC=C(C=C1)CN2C=CC3=C2C=C(C=C3)C(=O)NO
Procedure, shortened: as §2

Row | Cell Line | relative viability ([1]; first compound 0.06325 µM) | relative viability ([1]; first compound 0.2 µM) | relative viability ([1]; first compound 0.6325 µM) | relative viability ([1]; first compound 2 µM) | relative viability ([2]; first compound 0.08 µM) | relative viability ([2]; first compound 0.253 µM) | relative viability ([2]; first compound 0.8 µM) | relative viability ([2]; first compound 2.53 µM) | relative viability ([2]; first compound 8 µM) | relative viability ([3]; 0.06325 µM) | relative viability ([3]; 0.2 µM) | relative viability ([3]; 0.6325 µM) | relative viability ([3]; 2 µM) | relative viability ([4]; 0.08 µM) | relative viability ([4]; 0.253 µM) | relative viability ([4]; 0.8 µM) | relative viability ([4]; 2.53 µM) | relative viability ([4]; 8 µM) | relative viability ([3]; 0.02 µM) | relative viability ([1]; first compound 0.02 µM)
1 | NCI-H1355 | 0.425 | 0.46 | 0.423 | 0.442 | 0.781 | 1 | 0.94 | 1.11 | 0.873 | 0.835 | 1.03 | 0.943 | 0.944 | 0.814 | 0.996 | 0.987 | 0.995 | 0.874 | – | –
2 | Calu-6 | – | – | – | – | 0.809 | 0.84 | 0.805 | 0.828 | 0.698 | 0.968 | 0.935 | 0.905 | 1 | 0.825 | 1.01 | 1.03 | 0.998 | 0.977 | 1 | –
3 | NCI-H661 | 0.289 | 0.25 | 0.274 | 0.264 | – | – | – | – | – | 0.918 | 0.945 | 0.929 | 1 | – | 0.981 | 0.96 | 0.958 | 0.892 | 0.963 | 0.299
4 | NCI-H1975 | 0.395 | 0.407 | 0.368 | 0.397 | 0.979 | 1.17 | 1.26 | 1.06 | 1.16 | 0.876 | 0.903 | 0.884 | 0.861 | 0.862 | 0.976 | 0.923 | 0.979 | 0.872 | 1.03 | 0.434
5 | COR-L23 | 0.373 | 0.4 | 0.407 | 0.425 | 0.77 | 0.945 | 1.04 | 1.11 | 1.01 | 0.872 | 0.924 | 0.952 | 1.03 | 0.874 | 0.992 | 1 | 1.01 | 0.933 | 0.998 | 0.409
6 | HCC-15 | 0.457 | 0.452 | 0.431 | 0.472 | 0.605 | 0.726 | 0.717 | 0.741 | 0.675 | 0.952 | 1.04 | 0.985 | 1.05 | 0.883 | 0.965 | 1.11 | 1.01 | 0.935 | 0.89 | –
7 | NCI-H1651 | 0.34 | 0.379 | 0.279 | 0.316 | 0.926 | 1.14 | 1.07 | 0.987 | 0.92 | 0.906 | 0.96 | 0.882 | 0.915 | 0.918 | 0.963 | 0.969 | 0.91 | 0.926 | 0.977 | 0.286
8 | NCI-H1703 | – | – | – | – | 1.49 | 1.09 | 1.27 | 1.01 | 1.08 | 0.839 | 0.852 | 0.878 | 1.11 | 0.699 | 1.07 | 0.959 | 0.956 | 0.904 | 0.816 | –
9 | NCI-H1648 | – | – | – | – | – | – | – | – | – | 0.94 | 0.738 | 0.944 | 0.81 | 1 | 0.875 | 1.01 | 0.991 | 0.735 | 1.08 | –
10 | EBC-1 | – | – | – | – | 0.399 | 0.406 | 0.378 | 0.304 | 0.313 | 0.93 | 0.983 | 0.915 | 1 | 0.71 | 0.931 | 1.04 | 0.987 | 0.923 | 1.05 | –
11 | NCI-H650 | 0.385 | 0.405 | 0.408 | 0.412 | – | – | – | – | – | 0.799 | 0.834 | 0.783 | 0.731 | 0.903 | 0.834 | 0.888 | 0.949 | 0.891 | 0.765 | 0.439
12 | ABC-1 | 0.227 | 0.265 | 0.233 | 0.288 | – | – | – | – | – | 0.842 | 0.925 | 0.841 | 0.958 | – | 0.941 | 0.845 | 0.94 | 0.703 | – | –
13 | SW 900 | – | 0.679 | 0.504 | 0.508 | – | – | – | – | – | 0.645 | 0.909 | 0.807 | 0.777 | 0.862 | 0.802 | 0.934 | 0.941 | 0.732 | – | –
14 | LCLC-103H | 0.353 | 0.341 | 0.325 | 0.327 | – | – | – | – | – | 0.893 | 0.999 | 1.01 | 0.969 | 1.03 | 1.01 | 1.01 | 0.984 | 0.973 | 1 | 0.328
15 | NCI-H1299 | – | – | – | – | 1.01 | 1.06 | 1.07 | 1.07 | 1.02 | 1 | 1.01 | 0.968 | 1.02 | 1.01 | 1.04 | 1.03 | 1.02 | 0.99 | 0.993 | –
16 | NCI-H1563 | 0.638 | 0.686 | 0.643 | 0.667 | – | – | – | – | – | 0.953 | 0.956 | 0.966 | 1.05 | 0.843 | 1.09 | 0.955 | 0.968 | 0.908 | 0.851 | 0.594
17 | NCI-H522 | 0.664 | 0.667 | 0.583 | 0.802 | – | – | – | – | – | 0.958 | 0.912 | 1.07 | 1.04 | – | 0.946 | 0.968 | 0.869 | 0.793 | 0.947 | 0.683
